Measured values published in ChEMBL document CHEMBL1287771, “Novel hybrids of 15-membered 8a- and 9a-azahomoerythromycin A ketolides and quinolones as potent antibacterials” (2010).
In brackets after ≈: the same amount, converted by molar mass.

Assays:
Format in all cases: functional
Staphylococcus aureus [1] = assay: Antibacterial activity against erythromycin A-susceptible Staphylococcus aureus B0329 by agar microdilution method
Streptococcus pyogenes [2] = assay: Antibacterial activity against erythromycin A-susceptible Streptococcus pyogenes B0542 by agar microdilution method
Haemophilus influenzae = assay: Antibacterial activity against Haemophilus influenzae B0529 by agar microdilution method
Streptococcus pyogenes [3] = assay: Antibacterial activity against inducible macrolide-lincosamide-streptogramin B-resistant Streptococcus pyogenes B0543 by agar microdilution method
Staphylococcus aureus [4] = assay: Antibacterial activity against efflux-resistant Staphylococcus aureus B0331 by agar microdilution method
Streptococcus pyogenes [5] = assay: Antibacterial activity against constitutive macrolide-lincosamide-streptogramin B-resistant Streptococcus pyogenes B0544 by agar microdilution method
Streptococcus pyogenes [6] = assay: Antibacterial activity against efflux-resistant Streptococcus pyogenes B0545 by agar microdilution method
Moraxella catarrhalis = assay: Antibacterial activity against Moraxella catarrhalis B0324 by agar microdilution method
Streptococcus pneumoniae [7] = assay: Antibacterial activity against efflux-resistant Streptococcus pneumoniae B0326 by agar microdilution method
Streptococcus pneumoniae [8] = assay: Antibacterial activity against constitutive macrolide-lincosamide-streptogramin B-resistant Streptococcus pneumoniae B0627 by agar microdilution method
Staphylococcus aureus [9] = assay: Antibacterial activity against inducible macrolide-lincosamide-streptogramin B-resistant Staphylococcus aureus B0538 by agar microdilution method
Staphylococcus aureus [10] = assay: Antibacterial activity against constitutive macrolide-lincosamide-streptogramin B-resistant Staphylococcus aureus B0330 by agar microdilution method
Streptococcus pneumoniae [11] = assay: Antibacterial activity against erythromycin A-susceptible Streptococcus pneumoniae B0541 by agar microdilution method

Compound | MIC (Staphylococcus aureus [1]) | MIC (Streptococcus pyogenes [2]) | MIC (Haemophilus influenzae) | MIC (Streptococcus pyogenes [3]) | MIC (Staphylococcus aureus [4]) | MIC (Streptococcus pyogenes [5]) | MIC (Streptococcus pyogenes [6]) | MIC (Moraxella catarrhalis) | MIC (Streptococcus pneumoniae [7]) | MIC (Streptococcus pneumoniae [8]) | MIC (Staphylococcus aureus [9]) | MIC (Staphylococcus aureus [10]) | MIC (Streptococcus pneumoniae [11])
CC[C@H]1OC(=O)[C@H](C)C(=O)[C@H](C)[C@@H](O[C@@H]2O[C@H](C)C[C@H](N(C)C)[C@H]2O)[C@](C)(OC[C@H](O)CN2CCN(c3ccc4c(c3F)c(=O)c(C(=O)O)cn4C3CC3)CC2)C[C@@H](C)NC(=O)[C@H](C)[C@H](O)[C@@]1(C)O | ≤ 0.125 µg/mL | ≤ 0.125 µg/mL | 0.25 µg/mL (≈ 0.256 µM) | 0.5 µg/mL (≈ 0.512 µM) | 0.5 µg/mL (≈ 0.512 µM) | 4 µg/mL (≈ 4.1 µM) | 0.5 µg/mL (≈ 0.512 µM) | 0.5 µg/mL (≈ 0.512 µM) | 0.25 µg/mL (≈ 0.256 µM) | 0.5 µg/mL (≈ 0.512 µM) | 0.25 µg/mL (≈ 0.256 µM) | 8 µg/mL (≈ 8.2 µM) | ≤ 0.125 µg/mL
CC[C@H]1OC(=O)[C@H](C)C(=O)[C@H](C)[C@@H](O[C@@H]2O[C@H](C)C[C@H](N(C)C)[C@H]2O)[C@](C)(OC/C=C/c2cccc3ccccc23)C[C@@H](C)NC(=O)[C@H](C)[C@H](O)[C@@]1(C)O | 1 µg/mL (≈ 1.32 µM) | 0.25 µg/mL (≈ 0.331 µM) | 8 µg/mL (≈ 10.6 µM) | 4 µg/mL (≈ 5.3 µM) | 4 µg/mL (≈ 5.3 µM) | > 64 µg/mL | 2 µg/mL (≈ 2.65 µM) | 0.25 µg/mL (≈ 0.331 µM) | 2 µg/mL (≈ 2.65 µM) | > 64 µg/mL | 2 µg/mL (≈ 2.65 µM) | > 64 µg/mL | ≤ 0.125 µg/mL
CC[C@H]1OC(=O)[C@H](C)C(=O)[C@H](C)[C@@H](O[C@H]2C[C@H](O)[C@@H](N(C)C)[C@@H](C)O2)[C@](C)(OC/C=C/c2cnc3ccccc3c2)C[C@@H](C)/C(=N\OC(C)=O)[C@H](C)[C@@H](O)[C@]1(C)O | 0.25 µg/mL (≈ 0.313 µM) | 0.125 µg/mL (≈ 0.157 µM) | 32 µg/mL (≈ 40.1 µM) | ≤ 0.125 µg/mL | 1 µg/mL (≈ 1.25 µM) | 32 µg/mL (≈ 40.1 µM) | 0.5 µg/mL (≈ 0.627 µM) | 8 µg/mL (≈ 10 µM) | ≤ 0.125 µg/mL | 8 µg/mL (≈ 10 µM) | 0.5 µg/mL (≈ 0.627 µM) | 64 µg/mL (≈ 80.2 µM) | ≤ 0.125 µg/mL
CC[C@H]1OC(=O)[C@H](C)C(=O)[C@H](C)[C@@H](O[C@@H]2O[C@H](C)C[C@H](N(C)C)[C@H]2O)[C@](C)(OC[C@@H](O)CN2CCN(c3ccc4c(c3F)c(=O)c(C(=O)O)cn4C3CC3)CC2)C[C@@H](C)NC(=O)[C@H](C)[C@H](O)[C@@]1(C)O | ≤ 0.125 µg/mL | ≤ 0.125 µg/mL | ≤ 0.125 µg/mL | ≤ 0.125 µg/mL | 0.25 µg/mL (≈ 0.256 µM) | 2 µg/mL (≈ 2.05 µM) | 0.5 µg/mL (≈ 0.512 µM) | ≤ 0.125 µg/mL | ≤ 0.125 µg/mL | ≤ 0.125 µg/mL | 0.25 µg/mL (≈ 0.256 µM) | 2 µg/mL (≈ 2.05 µM) | ≤ 0.125 µg/mL
CC[C@H]1OC(=O)[C@H](C)C(=O)[C@H](C)[C@@H](O[C@@H]2O[C@H](C)C[C@H](N(C)C)[C@H]2O)[C@](C)(OC/C=C/c2cnc3ccccc3c2)C[C@@H](C)NC(=O)[C@H](C)[C@H](O)[C@@]1(C)O | 1 µg/mL (≈ 1.32 µM) | ≤ 0.125 µg/mL | 4 µg/mL (≈ 5.29 µM) | 1 µg/mL (≈ 1.32 µM) | 0.5 µg/mL (≈ 0.661 µM) | 8 µg/mL (≈ 10.6 µM) | 1 µg/mL (≈ 1.32 µM) | 0.25 µg/mL (≈ 0.331 µM) | 0.5 µg/mL (≈ 0.661 µM) | 16 µg/mL (≈ 21.2 µM) | 0.5 µg/mL (≈ 0.661 µM) | > 64 µg/mL | ≤ 0.125 µg/mL
C=CCO[C@]1(C)C[C@@H](C)C(=O)N[C@H](C)[C@H](O)[C@@](C)(O)[C@@H](CC)OC(=O)[C@H](C)C(=O)[C@H](C)[C@H]1O[C@@H]1O[C@H](C)C[C@H](N(C)C)[C@H]1O [3-O-DESCLADINOSYL-3-OXO-6-O-ALLYL-9A-AZA-9A-HOMOERYTHROMYCIN A] | > 64 µg/mL | > 64 µg/mL | > 64 µg/mL | > 64 µg/mL | > 64 µg/mL | > 64 µg/mL | > 64 µg/mL | 16 µg/mL (≈ 25.4 µM) | > 64 µg/mL | > 64 µg/mL | > 64 µg/mL | > 64 µg/mL | > 64 µg/mL
CC[C@H]1OC(=O)[C@H](C)C(=O)[C@H](C)[C@@H](O[C@@H]2O[C@H](C)C[C@H](N(C)C)[C@H]2O)[C@](C)(OC/C=C/c2cnc3ccccc3c2)C[C@@H](C)C(=O)N[C@H](C)[C@H](O)[C@@]1(C)OC/C=C/c1cnc2ccccc2c1 | ≤ 0.125 µg/mL | ≤ 0.125 µg/mL | 4 µg/mL (≈ 4.33 µM) | 0.5 µg/mL (≈ 0.542 µM) | 0.5 µg/mL (≈ 0.542 µM) | 8 µg/mL (≈ 8.67 µM) | 0.5 µg/mL (≈ 0.542 µM) | 0.125 µg/mL (≈ 0.135 µM) | 0.5 µg/mL (≈ 0.542 µM) | 4 µg/mL (≈ 4.33 µM) | 0.25 µg/mL (≈ 0.271 µM) | > 64 µg/mL | ≤ 0.125 µg/mL
C=CCO[C@]1(C)C[C@@H](C)NC(=O)[C@H](C)[C@H](O)[C@@](C)(O)[C@@H](CC)OC(=O)[C@H](C)C(=O)[C@H](C)[C@H]1O[C@@H]1O[C@H](C)C[C@H](N(C)C)[C@H]1O | 2 µg/mL (≈ 3.18 µM) | 0.25 µg/mL (≈ 0.398 µM) | 16 µg/mL (≈ 25.4 µM) | 16 µg/mL (≈ 25.4 µM) | 8 µg/mL (≈ 12.7 µM) | > 64 µg/mL | 8 µg/mL (≈ 12.7 µM) | ≤ 0.125 µg/mL | 16 µg/mL (≈ 25.4 µM) | > 64 µg/mL | 2 µg/mL (≈ 3.18 µM) | > 64 µg/mL | ≤ 0.125 µg/mL
